Laboratory results taken from US9987332B2, “Pharmaceutical composition for use in the treatment of a neurodegenerative disease” (SANOFI-AVENTIS DEUTSCHLAND GMBH, priority 2011, dated 2018).

Columns and labels:
[1] = Kastin et al 2001; McClean et al 2011; cited from earlier work
[2] = Uptake by the brain: levels in mouse brain tissue after i.p. injection; format: in vivo; details: 2.5 nmol/kg bw ip.
Protocol: Values are the mean±S.E.M. *p<0.05, **p<0.01.
Values are the mean±S.E.M. *p<0.05.
3 doses (2.5 nmol/kg bw, 25 nmol/kg bw and 250 nmol/kg bw, ip.) were tested, and the levels found in mouse brain tissue 30 min and 3 h post injection were examined.

## CCCCCCCCCCCCCCCC(=O)N[C@@H](CCC(=O)NCCCC[C@H](NC(=O)[C@H](C)NC(=O)[C@H](C)NC(=O)[C@H](CCC(N)=O)NC(=O)CNC(=O)[C@H](CCC(=O)O)NC(=O)[C@H](CC(C)C)NC(=O)[C@H](Cc1ccc(O)cc1)NC(=O)[C@H](CO)NC(=O)[C@H](CO)NC(=O)[C@@H](NC(=O)[C@H](CC(=O)O)NC(=O)[C@H](CO)NC(=O)[C@@H](NC(=O)[C@H](Cc1ccccc1)NC(=O)[C@@H](NC(=O)CNC(=O)[C@H](CCC(=O)O)NC(=O)[C@H](C)NC(=O)[C@@H](N)Cc1cnc[nH]1)[C@@H](C)O)[C@@H](C)O)C(C)C)C(=O)N[C@@H](CCC(=O)O)C(=O)N[C@@H](Cc1ccccc1)C(=O)N[C@H](C(=O)N[C@@H](C)C(=O)N[C@@H](Cc1c[nH]c2ccccc12)C(=O)N[C@@H](CC(C)C)C(=O)N[C@H](C(=O)N[C@@H](CCCNC(=N)N)C(=O)NCC(=O)N[C@@H](CCCNC(=N)N)C(=O)NCC(=O)O)C(C)C)[C@@H](C)CC)C(=O)O [liraglutide, Arg^34,Lys^26(N^ε(γ-glutamyl(N^α-hexadecanoyl)))GLP-1(7-37)]
[1]
  Crossing of the blood brain barrier (BBB): have been shown to cross the blood brain barrier
[2]
  Levels in the brain at the lowest dose: did not show an increase

## GLP-1: 30-amino acid peptide hormone encoded in the proglucagon gene
[1]
  Crossing of the blood brain barrier (BBB): have been shown to cross the blood brain barrier
